Measurements from publication PMC10400562, “Label-free measurement of antimicrobial peptide interactions with lipid vesicles and nanodiscs using microscale thermophoresis” (Scientific Reports, 2023).
Where two headings read alike, the source gives them in different places. Non-standard residues stand in square brackets, D forms with d. Residues, ends and D or L forms follow the SMILES beside them.

Test: SPR, peptide binding to LUVs immobilized on L1 chip
Conditions: for Kd: SPR steady state analysis, HEPES pH 7.4, room temperature, mean ± SD of triplicates; for koff PC/PG / koff PC: SPR, 10 mM HEPES pH 7.4 100 mM NaCl, room temperature, 400 s dissociation phase; for koff PC/PG: two-population fit averaged; for koff PC: two-population fit averaged (Figueira et al.); for SPR KP, DMPC: lipid/aqueous partition coefficient from SPR steady state (Figueira et al. method), DMPC LUVs; for SPR KP, DMPC / SPR KP, DMPC/PG: HEPES pH 7.4, ± SD of triplicate fits; for SPR KP, DMPC/PG: lipid/aqueous partition coefficient from SPR steady state, 95% DMPC 5% DMPG LUVs
Method: The interactions between AMPs 1–5 and LUVs were first investigated by SPR as a benchmark for the MST measurements. The data was acquired using the same lipid compositions as used in the MST data acquisition. LUVs were immobilized on an L1 chip, and an increasing concentration of AMPs was injected over them. […] The dissociation rate, koff, was calculated from the dissociation step, using the methodology presented by Figueira et al.[21], summarized in Table 2.
DMPC and DMPC:5% DMPG vesicles were prepared by solubilising a known weight of lipid in chloroform with a small amount of methanol to assist in the dissolution of the PG lipid head groups. The chloroform stock was dried in vacuo to produce a lipid film, which was further dried for additional 3 h. The lipid film was solubilised in 10 mM TRIS buffer (pH 7.4) containing 100 mM NaCl to yield a 20 mM milky lipid stock.
To produce the working vesicle stock, 1 mL of vesicle stock was extruded 20 times through a 0.1 µm filter using an Avanti Lipids mini-extruder. Vesicle size was confirmed using a Malvern Zetasizer Nano ZS (Malvern Panalytical Ltd, Malvern, United Kingdom).
The SPR measurements were performed using a T200 Biacore instrument (GE Healthcare, Oslo, Norway) at room temperature. An L1 chip was covered with extruded DMPC liposomes (1 mM in 10 mM HEPES buffer pH 7.4 with 100 mM NaCl) using a flowrate of 2 µL/min for 2400 s. Chip coverage was tested by injection of 0.1 mg/mL of bovine serum albumin for 1 min at 30 µL/min, with a change of < 400 RU indicating sufficient coverage.
The liposome surface was stabilized after each injection by three subsequent injections of 10 mM NaOH at 30 µL/min for 30 s each. Between experiments, the chip surface was cleaned by 20 mM CHAPS, 40 mM octyl-β-D-glucopyranoside and 30% ethanol in turn, with each solution injected for 1 min at 30 µL/min. The control flow cell was treated identically, with the exception that only the HEPES buffer solution was injected. The results were processed using in-house MATLAB scripts (MATLAB R2020a; scripts are available at https://github.com/MarJakubec).
KD was obtained from a steady state analysis using the intensities at the 190 s dissociation time, using Eq. (1):[21]1 Req=cRmax/KD+c+Roff where Req is the response at the steady state equilibrium, c is the peptide concentration, Rmax is the maximum response and Roff the response offset.
KP was obtained from same steady state affinity values using the method presented by Figuera et al., Eq. (2):[21]2 RUS/RUL=γLKPMS/MLSW/1+σγLKPSW where RUS and RUL are the relative responses of solute (peptides) and lipids respectively, γL is the molar volume of the lipids, MS and ML are the molecular mass of solute and lipid, respectively, and [S]W is the concentration of solute in water. KP and σ are obtained from fitting (with σ being lipid to solute ratio).
For koff evaluation we have used the formalism of Figuera et al.[21] for linearization of the dissociation process, where we have identified the contribution from two different populations in the dissociation response. Koff values were then obtained by Eq. (3) and averaged by Eq. (4):3 SL(t)=αe^-koff,α^t+βe^-koff,β^t+SL,r 4 koff=αkoff,α+βkoff,β/α+β where SL is the linearized ratio of solute and lipid, α and β are individual populations, and SL,r is the retained solute fraction.

[1] = 95% DMPC 5% DMPG LUVs on L1 chip, read-out: SPR KD, DMPC/PG
[2] = 95% DMPC 5% DMPG LUVs on L1 chip

Structure (SMILES): N=C(N)NCCC[C@@H]1NC(=O)[C@H](CCCNC(=N)N)NC(=O)[C@H](Cc2c[nH]c3ccccc23)NC(=O)[C@H](Cc2c[nH]c3ccccc23)NC(=O)[C@H](Cc2c[nH]c3ccccc23)NC(=O)[C@H](CCCNC(=N)N)NC1=O [compound 1] (cyclo(WWWRRR))
- Kd [1]: 70 ± 1 µM
- Kd (DMPC LUVs on L1 chip): 142 ± 35 µM
- koff PC/PG [2]: 0.19 ± 0.01 s⁻¹
- koff PC (DMPC LUVs on L1 chip): 0.22 ± 0.02 s⁻¹
- SPR KP, DMPC: 6.65 ± 0.80 × 10^3
- SPR KP, DMPC/PG: 12.71 ± 0.16 × 10^3

Structure (SMILES): N=C(N)NCCC[C@@H]1NC(=O)[C@H](Cc2c[nH]c3ccccc23)NC(=O)[C@H](CCCNC(=N)N)NC(=O)[C@H](Cc2c[nH]c3ccccc23)NC(=O)[C@H](CCCNC(=N)N)NC(=O)[C@H](Cc2c[nH]c3ccccc23)NC1=O [compound 2] (cyclo(WRWRWR))
- Kd [1]: 105 ± 7 µM
- Kd (DMPC LUVs on L1 chip): 318 ± 62 µM
- koff PC/PG [2]: 0.48 ± 0.05 s⁻¹
- koff PC (DMPC LUVs on L1 chip): 0.87 ± 0.19 s⁻¹
- SPR KP, DMPC: 1.30 ± 0.09 × 10^3
- SPR KP, DMPC/PG: 3.16 ± 0.15 × 10^3

Structure (SMILES): NCCCC[C@@H]1NC(=O)[C@H](CCCCN)NC(=O)[C@H](Cc2c[nH]c3ccccc23)NC(=O)[C@H](Cc2c[nH]c3ccccc23)NC(=O)[C@H](Cc2c[nH]c3ccccc23)NC(=O)[C@H](CCCCN)NC1=O [compound 3] (cyclo(WWWKKK))
- Kd [1]: 112 ± 15 µM
- Kd (DMPC LUVs on L1 chip): 302 ± 32 µM
- koff PC/PG [2]: 0.32 ± 0.05 s⁻¹
- koff PC (DMPC LUVs on L1 chip): 0.48 ± 0.07 s⁻¹
- SPR KP, DMPC: 2.53 ± 0.08 × 10^3
- SPR KP, DMPC/PG: 5.16 ± 0.34 × 10^3

Structure (SMILES): NCCCC[C@@H]1NC(=O)[C@H](Cc2c[nH]c3ccccc23)NC(=O)[C@H](CCCCN)NC(=O)[C@H](Cc2c[nH]c3ccccc23)NC(=O)[C@H](CCCCN)NC(=O)[C@H](Cc2c[nH]c3ccccc23)NC1=O [compound 4] (cyclo(WKWKWK))
- Kd [1]: 474 ± 45 µM
- Kd (DMPC LUVs on L1 chip): 712 ± 27 µM
- koff PC/PG [2]: 1.32 ± 0.05 s⁻¹
- koff PC (DMPC LUVs on L1 chip): 0.90 ± 0.24 s⁻¹
- SPR KP, DMPC: 0.53 ± 0.01 × 10^3
- SPR KP, DMPC/PG: 0.63 ± 0.03 × 10^3

Structure (SMILES): CC(C)C[C@@H]1NC(=O)[C@@H](CCCNC(=N)N)NC(=O)[C@H](CCCCN)NC(=O)[C@H](CC(N)=O)NC(=O)[C@@H](Cc2c[nH]c3ccccc23)NC(=O)[C@H](Cc2c[nH]c3ccccc23)NC1=O [compound 5] (cyclo(LW[dW]NK[dR]))
- Kd [1]: 1030 ± 58 µM
- Kd (DMPC LUVs on L1 chip): 2550 ± 493 µM
- koff PC/PG [2]: 1.75 ± 0.16 s⁻¹
- koff PC (DMPC LUVs on L1 chip): 1.76 ± 0.12 s⁻¹
- SPR KP, DMPC: 0.28 ± 0.01 × 10^3
- SPR KP, DMPC/PG: 0.40 ± 0.02 × 10^3
